These results are taken from PMC5291514, “Structure activity relationship and modeling studies of inhibitors of lysine specific demethylase 1” (PLoS ONE, 2017).

As usually defined, the IC50 is the concentration at which inhibition is half-maximal.

Where only a bound is given, the exact number is not on record here.

The target in assay [1] is T1, recombinant human LSD1 (Homo sapiens, UniProt O60341).
T1 construct: Human LSD1 catalytic domain, consisting of residues 172–833; GST (N); made in house; host or cells: Escherichia coli BL21-CodonPlus
The assay is described as follows: LSD1 enzyme inhibition, HRP-coupled Amplex red assay. The assay is classed as biochemical. To be noted: for Selectivity index for LSD1: LSD1 versus MAO-A and -B; for fold less active against LSD1 than 10: comparator compound 10; for fold more active against LSD1 than compound 24: comparator compound 24; for selectivity for LSD1 inhibition: LSD1 over MAO-A/-B. The procedure: Human LSD1 catalytic domain, consisting of residues 172–833, was expressed in Escherichia coli BL21-CodonPlus strain (Agilent) as a GST fusion protein, by using a pGEX-KG vector. Briefly, the cells were grown to late log phase at 37°C and then were induced overnight with 0.2 mM IPTG at 25°C. Cells were harvested and lysed by French Press in PBS buffer and the supernatant was subjected to an affinity column chromatography using the glutathione sepharose resin. The eluted LSD1 fractions were further purified with ~90% purity by gel filtration on a Superdex 200 column (GE healthcare).
Horseradish peroxidase (HRP)-coupled assay was used for the evaluation of the inhibitors, based on the reaction rate (i.e., amount of the product H2O2) being quantitatively determined by adding HRP and a HRP fluorescence substrate Amplex red.[20] 30 nM LSD1 was incubated with increasing concentrations of a compound in 50 mM phosphate buffer (pH = 7.0 containing 0.01% Brij-35) for 30 min at 25°C. […] The final volume of the reaction is 60 μL. Upon 20 min incubation, 60 μL solution containing HRP (0.01 unit) and Amplex red (80 μM) was added to quench the reaction. The fluorescence of each well was then determined using a Beckman DTX-880 microplate reader (excitation at 535; emission at 595 nm). Data were imported into Prism 5.0 (GraphPad) and the IC50 values were calculated by using the sigmoidal dose response curve fitting in the software. The reported IC50s were the mean values of at least three independent experiments.

For assay [2], the target named is T2, human MAO-B (Homo sapiens, UniProt P27338).
T2 construct: purchased Sigma
T2 sequence (P27338 1-520): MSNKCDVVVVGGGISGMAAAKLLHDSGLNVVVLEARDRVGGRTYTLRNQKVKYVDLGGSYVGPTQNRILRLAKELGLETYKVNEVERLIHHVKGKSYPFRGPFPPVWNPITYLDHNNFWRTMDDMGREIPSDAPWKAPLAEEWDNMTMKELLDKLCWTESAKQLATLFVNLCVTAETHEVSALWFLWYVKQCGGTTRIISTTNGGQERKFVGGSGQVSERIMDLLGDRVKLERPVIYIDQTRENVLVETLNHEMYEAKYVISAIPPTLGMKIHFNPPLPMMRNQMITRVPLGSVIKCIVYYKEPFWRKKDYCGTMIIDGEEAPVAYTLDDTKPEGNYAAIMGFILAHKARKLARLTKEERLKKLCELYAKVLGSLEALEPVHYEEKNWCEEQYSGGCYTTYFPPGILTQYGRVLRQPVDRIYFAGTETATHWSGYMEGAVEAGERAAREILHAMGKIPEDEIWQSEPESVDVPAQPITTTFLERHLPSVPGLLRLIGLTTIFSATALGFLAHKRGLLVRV
The experiment in a line: Inhibition of MAO-B, MAO-Glo assay kit. The assay is classed as biochemical. The conditions noted are these: Table 2; 100 nM MAO-B, 60 min. Here is the method:
(§1) Inhibition of MAO-A and -B was determined using MAO-Glo assay kit (Promega). Following the manufacturer’s protocol, assays were performed in 384 well white plates (Corning) in the presence of 100 nM MAO-A/-B (Sigma) and MAO substrate. The final volume of each reaction mixture was 20 μL. Reactions were quenched after 60 min by adding reconstituted luciferin detection reagent (20 μL/well). 20 min after addition of detection reagent, the plate was measured in luminescence mode using Beckman DTX-880 microplate reader. IC50 calculation was done similarly.

Assay [3] concerns the target T3, human MAO-A (Homo sapiens, UniProt P21397).
T3 construct: purchased Sigma
T3 sequence (P21397 1-527): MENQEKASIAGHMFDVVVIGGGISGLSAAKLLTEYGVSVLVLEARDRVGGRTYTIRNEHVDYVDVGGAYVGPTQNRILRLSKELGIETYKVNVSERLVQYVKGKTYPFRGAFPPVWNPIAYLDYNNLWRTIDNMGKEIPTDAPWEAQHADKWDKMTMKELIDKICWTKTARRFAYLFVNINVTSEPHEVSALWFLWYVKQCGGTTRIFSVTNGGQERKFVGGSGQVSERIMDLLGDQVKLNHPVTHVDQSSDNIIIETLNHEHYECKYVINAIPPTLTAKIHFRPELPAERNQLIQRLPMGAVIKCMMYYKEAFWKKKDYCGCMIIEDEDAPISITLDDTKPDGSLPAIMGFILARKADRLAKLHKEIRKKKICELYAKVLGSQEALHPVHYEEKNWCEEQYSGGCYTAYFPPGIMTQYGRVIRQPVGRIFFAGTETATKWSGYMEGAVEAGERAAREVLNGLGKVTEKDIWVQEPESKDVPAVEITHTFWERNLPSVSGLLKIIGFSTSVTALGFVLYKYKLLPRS
The assay is described as follows: Inhibition of MAO-A, MAO-Glo assay kit. The assay is classed as biochemical. To be noted: Table 2; 100 nM MAO-A, 60 min. The procedure:
as §1

Assay [4] concerns the target MAO-A and -B. The experiment in a line: Inhibition of MAO-A/-B, MAO-Glo assay kit, one range given over both enzymes. The conditions noted are these: range over both enzymes and the named compounds; read-out: IC50 against MAO-A and -B. The assay is classed as biochemical, human. The procedure: as §1
The mark [5] stands for this setting: Table 1, 30 nM LSD1, 30 min preincubation, 10 μM H3K4Me2 peptide.

As to `CN1CCN(C(=O)CNC2CC2c2ccc(-c3ccc(F)nc3)cc2)CC1` (racemic) [Compound 2, reference compound], the IC50 was found to be 77 nM in assay [1] (setting [5]), 77 nM in assay [1] (Table 2), 480000 nM in assay [2] and 120000 nM in assay [3]. In addition, in assay [1] (Table 2), the “Selectivity index for LSD1” value was >1,500.
As to `Brc1ccc(C2CC2NCc2ccncc2)cc1` (racemic) [Compound 21], in assay [1] (setting [5]), the IC50 is above 100000 nM.
For the compound `O=C(CNC1CC1c1ccc(Br)cc1)N1CCNCC1` (racemic) [Compound 10], the IC50 came out at 64 nM in assay [1] (setting [5]), 64 nM in assay [1] (Table 2), 23100 nM in assay [2] and 18100 nM in assay [3]. Also, the “Selectivity index for LSD1” value in assay [1] (Table 2) is recorded as above 280.
`Brc1ccc(C2CC2NCc2ccccc2)cc1` (stereo not shown) [Compound 17]: the IC50 in assay [1] (setting [5]) was found to be 5000 nM.
For `Nc1ccc(CNC2CC2c2ccc(Br)cc2)cc1` (racemic) [Compound 19], the IC50 in assay [1] (setting [5]) is above 100000 nM.
On to `O=C(CNC1CC1c1ccccc1)N1CCNCC1` (racemic) [Compound 13], for which, in assay [1] (setting [5]), the IC50 was 190 nM. Also, the “fold more active against LSD1 than 14” value in assay [1] (comparator compound 14) is recorded as ~ 7 fold.
For `CC(=O)NC1CC1c1ccc(Br)cc1` (racemic) [Compound 22], the IC50 in assay [1] (setting [5]) was 15400 nM.
In the case of `O=C(CNC1CC1c1ccc(Br)cc1)N1CCCC1` (racemic) [Compound 12], the IC50 in assay [1] (setting [5]) worked out at 3600 nM. The “fold less active against LSD1 than 10” value in assay [1] was around 56 ×.
With `CN1CCN(C(=O)CNC2CC2c2ccc(-c3ccc(Cl)nc3)cc2)CC1` (racemic) [Compound 4], in assay [1] (setting [5]), the IC50 was 150 nM.
Still for that read-out and setting: the value for `O=C(CNC1CC1c1ccccc1)N1CCCCC1` (racemic) [Compound 14] was 1300 nM; that for `CN1CCN(C(=O)CNC2CC2c2ccccc2Br)CC1` (racemic) [Compound 5] was above 100000 nM.
As for `Brc1ccc(C=NC2CC2c2ccc(Br)cc2)cc1` (racemic) [Compound 25], the IC50 in assay [1] (setting [5]) was found to be 1200 nM. The “fold more active against LSD1 than compound 24” value in assay [1] is above 10 ×.
For `Brc1ccc(C2CC2N=Cc2ccccc2)cc1` (racemic) [Compound 24], the IC50 in assay [1] (setting [5]) was found to be 15600 nM.
On to `CN(C)c1ccc(C=NC2CC2c2ccc(Br)cc2)cc1` (racemic) [Compound 29], for which the “LSD1 inhibitory activity in words” value in assay [1] is recorded as “only modest activities”. Besides, the IC50 in assay [1] (setting [5]) was 11000 nM.
With `NNC1CC1c1ccccc1` (stereo not drawn) [Compound 31, Trans-phenyl cyclopropyl hydrazine], the IC50 in assay [1] (setting [5]) came to 5800 nM; in assay [2], 87000 nM; in assay [3], 40700 nM. Besides, the “Selectivity index for LSD1” value in assay [1] (Table 2) is above 7.
On to `CN1CCN(C(=O)CNC2CC2c2ccc(Br)cc2)CC1` (racemic) [Compound 3, reference compound], for which the IC50 was found to be 35 nM in assay [1] (setting [5]), 35 nM in assay [1] (Table 2), 16300 nM in assay [2] and 7300 nM in assay [3]. Also, the “Selectivity index for LSD1” value in assay [1] (Table 2) is above 208.
For the compound `Brc1ccc(C2CC2NNCC2CCNCC2)cc1` (racemic) [Compound 34], the IC50 in assay [1] (setting [5]) was found to be 1700 nM. Also, the “fold less active against LSD1 than cyclopropylamine analog 15” value in assay [1] (comparator compound 15) is ~ 7 ×.
Take `COc1cccc(C=NC2CC2c2ccc(Br)cc2)c1` (racemic) [Compound 27]: the IC50 in assay [1] (setting [5]) amounted to 900 nM. For the same compound, the “fold more active against LSD1 than compound 24” value in assay [1] is above 10 ×.
Regarding `CN1CCN(C(=O)CNC2CC2c2cccc(Br)c2)CC1` (racemic) [Compound 6], in assay [1] (setting [5]), the IC50 is above 100000 nM.
In the case of `O=C(CNNC1CC1c1ccccc1)N1CCNCC1` (racemic) [Compound 32], the “selectivity for LSD1 inhibition” value in assay [1] is above 150 fold. Further, the IC50 in assay [1] (setting [5]) turned out to be 670 nM; in assay [1] (Table 2) it was 670 nM; in assay [2], 370000 nM; in assay [3], 97500 nM. In assay [1] (Table 2), the “Selectivity index for LSD1” value was above 145. In addition, the “fold less active against LSD1 than cyclopropylamine analog 13” value in assay [1] (comparator compound 13) is recorded as ~ 3 ×. For the same compound, in assay [1] (comparator compound 31), the “fold enhanced LSD1 activity over 31” value is reported as ~ 9 fold.
Regarding `Brc1ccc(C2CC2N=Cc2ccncc2)cc1` (racemic) [Compound 30], the “LSD1 inhibitory activity in words” value in assay [1] is “only modest activities”. Also, the IC50 in assay [1] (setting [5]) is 14000 nM.
For the compound `CN1CCN(C(=O)CNCC#Cc2ccccc2)CC1` [Compound 35, 1-(4-methylpiperazin-1-yl)-2-((3-phenylprop-2-yn-1-yl)amino)ethan-1-one], in assay [1] (setting [5]), the IC50 came to 36400 nM.
As to `Oc1ccc(CNC2CC2c2ccc(Br)cc2)cc1` (racemic) [Compound 18], in assay [1] (setting [5]), the IC50 was 94000 nM.
Turning to `O=C(NNC1CC1c1ccccc1)N1CCNCC1` (racemic) [Compound 33], the IC50 in assay [1] (setting [5]) turned out to be 84000 nM.
`COc1ccccc1C=NC1CC1c1ccc(Br)cc1` (racemic) [Compound 26]: the “selectivity for LSD1 inhibition” value in assay [1] is given as “no LSD1 selectivity was observed”. Moreover, the IC50 was found to be 740 nM in assay [1] (setting [5]), 740 nM in assay [1] (Table 2), 400 nM in assay [2] and 300 nM in assay [3]. Moreover, in assay [1] (Table 2), the “Selectivity index for LSD1” value is below 0.54. Besides, the “fold more active against LSD1 than compound 24” value in assay [1] was above 10 ×.
Consider `CN(C)c1ccc(CNC2CC2c2ccc(Br)cc2)cc1` (racemic) [Compound 20], for which the IC50 in assay [1] (setting [5]) was 71000 nM.
Same read-out and setting: the value for `O=C(Nc1ccccc1)NC1CC1c1ccc(Br)cc1` (racemic) [Compound 23] was 7400 nM.
Regarding `O=C(CNC1CC1c1ccc(Br)cc1)N1CCCCC1` (racemic) [Compound 11], the IC50 in assay [1] (setting [5]) stood at 620 nM; in assay [1] (Table 2), 620 nM; in assay [2] it was 510 nM; in assay [3], 260 nM. Also, the “Selectivity index for LSD1” value in assay [1] (Table 2) was below 0.82. Also, the “fold less active against LSD1 than 10” value in assay [1] was ~ 10 ×.
For the compound `Brc1ccc(C2CC2NCC2CCNCC2)cc1` (racemic) [Compound 15], in assay [1] (setting [5]), the IC50 came to 260 nM.
Turning to `NC1CC1c1ccc(OCc2ccccc2)cc1` (racemic) [Compound 7], the IC50 is 170 to 3100 nM in assay [4]; 910 nM in assay [1] (setting [5]); 910 nM in assay [1] (Table 2); 350 nM in assay [2]; 170 nM in assay [3]. For the same compound, in assay [1] (7 vs 1, 8 vs 2, 9 vs 3), the “fold less active against LSD1 than the corresponding compounds 1–3” value was found to be 92 fold. Further, in assay [1] (Table 2), the “Selectivity index for LSD1” value is below 0.38.
